Literature values, collected in US11470860B2, “Animal feeds containing specific glycolipids” (PATHWAY INTERMEDIATES LIMITED, priority 2016, dated 2022).

Details: for stability versus pH: aqueous medium

stability versus pH | SMILES | solubility in aqueous medium (dependence on pH)
instability at pH higher than 7.0 | CC(CCCCCC/C=C\CCCCCCCC(=O)O)OC1OC(CO)C(O)C(O)C1OC1OC(CO)C(O)C(O)C1O (stereo not drawn) [Acidic sophorolipids] | not readily soluble in aqueous medium at acidic pH but become soluble at higher pH
stable across a wider pH range | CC1CCCCCC/C=C\CCCCCCCC(=O)OC2C(CO)OC(OC3C(O1)OC(CO)C(O)C3O)C(O)C2O (stereo not drawn) [lactonised sophorolipids] | –
